{
  "source": "paper PMC11189555",
  "about": "“Aryl amino acetamides prevent Plasmodium falciparum ring development via targeting the lipid-transfer protein PfSTART1” (Nature Communications, 2024)",
  "key": {"[1]": {"system": "PopE-F10 M-833 resistant clone (PfSTART1 N330K)", "assay": "Growth inhibition assay (72 h, LDH activity)", "type": "cell-based, Plasmodium falciparum", "set-up": "sample/DMSO: scale not given here", "description": "(§1) The drug was then removed, and parasites were allowed to recover. Another cycle of drug treatment (3 μM M-833) was then resumed. The resistant lines were cloned out by limiting dilution (diluting the culture into a 96-well plate to achieve an average of ~0.3 parasites per well), prior to growth inhibition assays and genomic DNA (gDNA) extraction (DNeasy Blood and Tissue kit (Qiagen)[18].\n(§2) Parasite growth assays with inhibitory compounds were performed as per[11] and are fully described in the Supplementary Information. […]\n(§3) Growth inhibition assays. Synchronised ring-stage parasites (0.3-0.6% parasitemia, 2% haematocrit) were grown for 72 h in a serial-dilution of the compound under […]\n(§4) and compound 4. Note that M-833 was first purchased from MolPort (MolPort -002-267-916) then made in-house at WEHI: the differences observed in EC50s across experiments are attributed to the different batches of M -833. For some experiments, 0, 0.25 or 2.5 mM of glucosamine (GlcN) was also added. Experiments were set up in technical duplicates or triplicates. Following a freeze -thaw cycle, lactate dehydrogenase (LDH) activity was assessed as an indicator of parasite growt h 5. 30 μL of parasite culture was incubated for 30 min in the dark with 75 μL Malstat mixture (0.1 M Tris pH 9.0, 20 g/L lactic acid, pH 7.5, 0.2% Triton-X100, 0.5 g/L acetylpyridine adenine dinucleotide (APAD, Sigma), 200 μg/mL nitroblue tetrazolium (NBT; Sigma), 1 μg/mL phenozine ethosulfate (PES; Sigma)). Absorbance was then measured at 650 nm, transformed using the formula below, plotted against the logarithm of the concentrations, and a non-linear regression (log(inhibitor) vs. response, variable slope) was calculated using GraphPad Prism to assess the half-inhibitory […]\n(§5) Growth inhibition % = (1 − average(sample)− average(uRBC)) ∗ 100 […]\n(§6) The DMSO samples were also used to assess growth of parasite in the presence of 0.25 and 2.5 mM GlcN (normalised by DMSO in 0 mM GlcN). […]"}, "[2]": {"system": "PopD-D7 M-833 resistant clone (PfSTART1 N309K)", "assay": "Growth inhibition assay (72 h, LDH activity)", "type": "cell-based, Plasmodium falciparum", "description": "as §1, §2, §3, §4, §5, §6"}},
  "data": [
    {"smiles": "CN(C(=O)C(C)(C)Nc1ccc(Cl)c(S(=O)(=O)N2CCOCC2)c1)c1ccc(F)c(Cl)c1", "note": "[compound 4]", "values": [
      {"measurement": "EC50", "setting": "[1]; Plasmodium falciparum, 72 h, Supplementary Table 1, PopE-F10 (N330K)", "result": 13.8, "unit": "µM"},
      {"measurement": "resistance of the line compared with 3D7", "setting": "[1]; PopE-F10 (N330K), Fig 4B", "result": "No change in EC50"},
      {"measurement": "sample/DMSO", "setting": "[1]; PopE-F10, 0.00152416 uM, biological replicate 3", "result": -10.997},
      {"measurement": "sample/DMSO", "setting": "[1]; PopE-F10, 0.00304832 uM, biological replicate 1", "result": -14.4828},
      {"measurement": "sample/DMSO", "setting": "[1]; PopE-F10, 0.00457247 uM, biological replicate 3", "result": -14.249},
      {"measurement": "sample/DMSO", "setting": "[1]; PopE-F10, 0.00914495 uM, biological replicate 1", "result": -25.5172},
      {"measurement": "sample/DMSO", "setting": "[1]; PopE-F10, 0.0137174 uM, biological replicate 3", "result": -22.0582},
      {"measurement": "sample/DMSO", "setting": "[1]; PopE-F10, 0.0274348 uM, biological replicate 1", "result": -44.0394},
      {"measurement": "sample/DMSO", "setting": "[1]; PopE-F10, 0.0411523 uM, biological replicate 3", "result": -25.9307},
      {"measurement": "sample/DMSO", "setting": "[1]; PopE-F10, 0.078125 uM, biological replicate 2", "result": -21.3563},
      {"measurement": "sample/DMSO", "setting": "[1]; PopE-F10, 0.0823045 uM, biological replicate 1", "result": -49.1626},
      {"measurement": "sample/DMSO", "setting": "[1]; PopE-F10, 0.123457 uM, biological replicate 3", "result": -32.7771},
      {"measurement": "sample/DMSO", "setting": "[1]; PopE-F10, 0.15625 uM, biological replicate 2", "result": -19.0708},
      {"measurement": "sample/DMSO", "setting": "[1]; PopE-F10, 0.246914 uM, biological replicate 1", "result": -58.8177},
      {"measurement": "sample/DMSO", "setting": "[1]; PopE-F10, 0.3125 uM, biological replicate 2", "result": -21.7123},
      {"measurement": "sample/DMSO", "setting": "[1]; PopE-F10, 0.37037 uM, biological replicate 3", "result": -39.4309},
      {"measurement": "sample/DMSO", "setting": "[1]; PopE-F10, 0.625 uM, biological replicate 2", "result": -9.966},
      {"measurement": "sample/DMSO", "setting": "[1]; PopE-F10, 0.740741 uM, biological replicate 1", "result": -40.7882},
      {"measurement": "sample/DMSO", "setting": "[1]; PopE-F10, 1.11111 uM, biological replicate 3", "result": -43.6671},
      {"measurement": "sample/DMSO", "setting": "[1]; PopE-F10, 1.25 uM, biological replicate 2", "result": -1.293},
      {"measurement": "sample/DMSO", "setting": "[1]; PopE-F10, 2.22222 uM, biological replicate 1", "result": -40.4926},
      {"measurement": "sample/DMSO", "setting": "[1]; PopE-F10, 2.5 uM, biological replicate 2", "result": 7.269},
      {"measurement": "sample/DMSO", "setting": "[1]; PopE-F10, 3.33333 uM, biological replicate 3", "result": -37.5053},
      {"measurement": "sample/DMSO", "setting": "[1]; PopE-F10, 5 uM, biological replicate 2", "result": 28.3814},
      {"measurement": "sample/DMSO", "setting": "[1]; PopE-F10, 6.66667 uM, biological replicate 1", "result": -11.4286},
      {"measurement": "sample/DMSO", "setting": "[1]; PopE-F10, 10 uM, biological replicate 2", "result": 46.5155},
      {"measurement": "sample/DMSO", "setting": "[1]; PopE-F10, 10 uM, biological replicate 3", "result": 5.884},
      {"measurement": "sample/DMSO", "setting": "[1]; PopE-F10, 20 uM, biological replicate 1", "result": 42.9557},
      {"measurement": "sample/DMSO", "setting": "[1]; PopE-F10, 20 uM, biological replicate 2", "result": 83.0461},
      {"measurement": "Fold change compared to 3D7", "setting": "[1]; Supplementary Table 1, EC50 on PopE-F10 vs 3D7", "result": 1.4, "unit": "fold"},
      {"measurement": "EC50", "setting": "[2]; Plasmodium falciparum, Supplementary Table 1, PopD-D7 (N309K), 72 h, read-out: EC50", "result": 15.7, "unit": "µM"},
      {"measurement": "resistance of the line compared with 3D7", "setting": "[2]; PopD-D7 (N309K), Fig 4B", "result": "No change in EC50"},
      {"measurement": "sample/DMSO", "setting": "[2]; PopD-D7, 0.00152416 uM, biological replicate 3", "result": -12.3682},
      {"measurement": "sample/DMSO", "setting": "[2]; PopD-D7, 0.00304832 uM, biological replicate 1", "result": -15.0464},
      {"measurement": "sample/DMSO", "setting": "[2]; PopD-D7, 0.00457247 uM, biological replicate 3", "result": -16.5856},
      {"measurement": "sample/DMSO", "setting": "[2]; PopD-D7, 0.00914495 uM, biological replicate 1", "result": -23.9863},
      {"measurement": "sample/DMSO", "setting": "[2]; PopD-D7, 0.0137174 uM, biological replicate 3", "result": -19.1403},
      {"measurement": "sample/DMSO", "setting": "[2]; PopD-D7, 0.0274348 uM, biological replicate 1", "result": -36.3947},
      {"measurement": "sample/DMSO", "setting": "[2]; PopD-D7, 0.0411523 uM, biological replicate 3", "result": -26.0746},
      {"measurement": "sample/DMSO", "setting": "[2]; PopD-D7, 0.078125 uM, biological replicate 2", "result": -26.6126},
      {"measurement": "sample/DMSO", "setting": "[2]; PopD-D7, 0.0823045 uM, biological replicate 1", "result": -40.9868},
      {"measurement": "sample/DMSO", "setting": "[2]; PopD-D7, 0.123457 uM, biological replicate 3", "result": -30.0892},
      {"measurement": "sample/DMSO", "setting": "[2]; PopD-D7, 0.15625 uM, biological replicate 2", "result": -24.0527},
      {"measurement": "sample/DMSO", "setting": "[2]; PopD-D7, 0.246914 uM, biological replicate 1", "result": -42.7943},
      {"measurement": "sample/DMSO", "setting": "[2]; PopD-D7, 0.3125 uM, biological replicate 2", "result": -25.1299},
      {"measurement": "sample/DMSO", "setting": "[2]; PopD-D7, 0.37037 uM, biological replicate 3", "result": -34.7932},
      {"measurement": "sample/DMSO", "setting": "[2]; PopD-D7, 0.625 uM, biological replicate 2", "result": -6.501},
      {"measurement": "sample/DMSO", "setting": "[2]; PopD-D7, 0.740741 uM, biological replicate 1", "result": -38.9839},
      {"measurement": "sample/DMSO", "setting": "[2]; PopD-D7, 1.11111 uM, biological replicate 3", "result": -37.8751},
      {"measurement": "sample/DMSO", "setting": "[2]; PopD-D7, 1.25 uM, biological replicate 2", "result": 3.536},
      {"measurement": "sample/DMSO", "setting": "[2]; PopD-D7, 2.22222 uM, biological replicate 1", "result": -23.9863},
      {"measurement": "sample/DMSO", "setting": "[2]; PopD-D7, 2.5 uM, biological replicate 2", "result": 14.2567},
      {"measurement": "sample/DMSO", "setting": "[2]; PopD-D7, 3.33333 uM, biological replicate 3", "result": -28.5888},
      {"measurement": "sample/DMSO", "setting": "[2]; PopD-D7, 5 uM, biological replicate 2", "result": 26.676},
      {"measurement": "sample/DMSO", "setting": "[2]; PopD-D7, 6.66667 uM, biological replicate 1", "result": 9.624},
      {"measurement": "sample/DMSO", "setting": "[2]; PopD-D7, 10 uM, biological replicate 2", "result": 49.8923},
      {"measurement": "sample/DMSO", "setting": "[2]; PopD-D7, 10 uM, biological replicate 3", "result": 18.8159},
      {"measurement": "sample/DMSO", "setting": "[2]; PopD-D7, 20 uM, biological replicate 1", "result": 64.3869},
      {"measurement": "sample/DMSO", "setting": "[2]; PopD-D7, 20 uM, biological replicate 2", "result": 82.347},
      {"measurement": "Fold change compared to 3D7", "setting": "[2]; Supplementary Table 1, EC50 on PopD-D7 vs 3D7", "result": 1.6, "unit": "fold"}
    ]}
  ]
}
